This test concerns CEM cells HIV-1 protection, formazan growth assay. As to the kind of experiment: NCI AIDS Antiviral Assay. As to conditions: for IC50: measured here: growth of uninfected CEM cells. A digest of the protocol: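 Soluble formazan readout of cell growth; CEM cells ± HIV-1; 5 drug concs. ≥50% protection → retest; ≥50% again = moderately active; reproducible 100% = confirmed active.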

“And” between values parts separate entries of the source, which are not always exact repeats. Equal entries are not always repeated. The source made the active and inactive calls.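 Rule for the calls: active = compounds giving half or more protection of infected cells from virus-caused growth loss, again on retest; inactive = the rest.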 Bounds are passed on as bounds.

For `O=C1C(O)=C(c2ccc(Br)cc2)C(=O)C(O)=C1c1ccc(Br)cc1`, the EC50 (usually the concentration needed to bring the measured effect to its halfway point) is greater than 58.9 µM and the IC50 (usually the concentration needed to halve the response being measured) was 22.4 µM. `CCC[CH2][Sn]1([CH2]CCC)[S]CC[N]1S(=O)(=O)c1ccc(C)cc1`: the EC50 was greater than 200 µM and the 50% inhibitory concentration (IC50) is 0.0776 µM. On the same counts, the results for `[N-]=[N+]=Nc1c(-c2ccccc2)c(Cl)nc2ccccc12` are greater than 200 µM and 20.4 µM. For `O=C(CSc1cc(-c2ccc(Cl)cc2)s[s+]1)c1ccccc1`, in that order: greater than 200 µM and 52.5 µM. On the same counts, the results for `CC(=O)/C(C)=C(/C)[O-].CC(=O)/C(C)=C(/C)[O-].NCCNCCCNC(=O)c1cccc2cc3ccccc3nc12.[Co+3].[O-][Cl+3]([O-])([O-])[O-]` are greater than 100 µM and 3.47 µM. Consider `O=S1c2ccccc2Sc2ccccc21`, for which the EC50 was 75.9 µM and the IC50 is 174 µM. For `[N-]=[N+]=C(C(=O)C(=[N+]=[N-])C(=O)c1ccccc1)C(=O)c1ccccc1`, in that order: greater than 112 µM and greater than 112 µM.

As to `Nc1ncnc2c1ncn2CC(=O)NCCCCO`, the EC50 was greater than 200 µM and the 50% inhibitory concentration (IC50) is greater than 200 µM. Consider `CC12C=CC(=O)C=C1CCC1C3CCC(O)(C(=O)CO)C3(C)CC(O)C12F` (configuration not stated), for which the outcome was inactive. Take `COc1ccc2c(=O)c(-c3ccc4c(c3)OCO4)c(C)oc2c1`: the EC50 was greater than 200 µM and the 50% inhibitory concentration (IC50) stood at 42.7 µM. Regarding `c1ccc2c(c1)CCN2CCc1c[nH]c2ccccc12`, the EC50 is greater than 200 µM and the half-maximal inhibitory concentration (IC50) is 178 µM. For `Cc1ccccc1C(=O)NC(O)(C(F)(F)F)C(F)(F)F`, the outcome was inactive. `O=C(O)Cn1nnc2c(=O)[nH][nH]c(=O)c21`: the EC50 is greater than 200 µM and the half-maximal inhibitory concentration (IC50) was greater than 200 µM. `CCCN(CCC)C(=S)N/N=C/c1ccccn1`: the EC50 was greater than 2 µM and the IC50 was determined as 0.0126 µM.

Consider `N#Cc1c(Cl)cc(C#N)n2c1nc1ccccc12`, for which the EC50 is greater than 20 µM and the IC50 is 0.363 µM. On the same counts, the results for `CC1(OCc2ccccc2)C(=O)N2C1N(C(=O)OCc1ccccc1)CC2(C)C` (configuration not stated) are greater than 251 µM and 53.7 µM.

For the compound `O=C1N[C@H]2[C@H](O)[C@H](O)[C@@H](O)[C@H](O)[C@@H]2c2cc3c(c(O)c21)OCO3`, the result was inactive. On to `COc1ccc(/C=C/C(=O)NCC(NC(=O)/C=C/c2ccc(OC)c(OC)c2)C(=O)O)cc1OC` (configuration not stated), for which the EC50 is greater than 200 µM and the IC50 is greater than 200 µM.

In the case of `Cc1cc(NS(=O)(=O)c2ccc(Nc3c4ccccc4nc4c(C(=O)Nc5ccc(S(=O)(=O)N=C(N)N)cc5)ccc(Cl)c34)cc2)no1`, the EC50 is greater than 51.3 µM and the 50% inhibitory concentration (IC50) is greater than 51.3 µM. On to `Cc1[nH]c2ccccc2c1C1Cc2ccccc2N1C(=O)C#Cc1ccc([N+](=O)[O-])cc1` (configuration not stated), for which the outcome was inactive. As to `COc1cccc(N2C(=O)[C@H]3CC(C)c4c([nH]c5ccccc45)[C@H]3C2=O)c1` (some centres not stated), the EC50 was greater than 35.5 µM and the IC50 was greater than 35.5 µM. Take `CC1=NN(C(=O)CC(=O)Nc2cccc(C)c2)C(=O)C1N=Nc1ccc(S(=O)(=O)CCOS(=O)(=O)O)cc1` (configuration not stated): the EC50 is greater than 2 µM and the IC50 was found to be 1.26 µM. On the same counts, the results for `COc1ccc(-c2c(-c3ccccc3)c(C)c3ccccn23)cc1` are greater than 200 µM and 42.7 µM. For `Oc1c(C2=N[C@H]3CCCC[C@@H]3N2)ccc2ccccc12`, in that order: greater than 200 µM and greater than 200 µM. Turning to `Nc1nc(=O)nc2[nH]c3c4cccc5cccc(c3nc12)c54`, the EC50 is greater than 200 µM; the IC50 was 141 µM and > 200 µM.

For `CC(=O)OC12C(C)=C(C)C(=O)N1c1ccccc1N2C(C)=O` (configuration not stated), the outcome was inactive. As to `CC(C)(C)C1CCP(=O)(c2ccccc2)CC1` (configuration not stated), the EC50 was 0.0631 µM and the IC50 is greater than 200 µM.

As to `O=C([N-]/N=C/c1ccccc1)c1ccccc1[O-].[OH3+].[Zn+2]`, the EC50 is 162 µM and the IC50 worked out at 166 µM. On the same counts, the results for `CCCCNC(C)(C)C(SSSC(C)=O)c1ccco1` (configuration not stated) are greater than 200 µM and 56.2 µM.

`O=c1[nH]c2ccc([As](=O)(O)O)cc2[nH]1` had an EC50 greater than 200 µM and an IC50 greater than 200 µM. Regarding `Cc1cc(S(=O)(=O)Nc2nc(N)nc(N(C)C)n2)c(SCC(=O)O)cc1Cl`, the EC50 was greater than 200 µM and the IC50 is greater than 200 µM.

On to `O=C(Nc1nc(C23CC4CC(CC(C4)C2)C3)cs1)c1cc2cc(Cl)ccc2oc1=O`, for which the EC50 is greater than 200 µM and the IC50 was greater than 200 µM. Consider `COc1ccc(S(=O)(=O)OC)cc1C(=O)c1cc(S(=O)(=O)OC)ccc1OC`, for which the EC50 was greater than 23.4 µM and the 50% inhibitory concentration (IC50) was greater than 23.4 µM. For `Clc1nc(Cl)nc(-c2ccccc2)n1`, the EC50 was greater than 200 µM and the concentration for half-maximal inhibition (IC50) was greater than 200 µM. For `COCn1c(C)c(C)c2c(=O)oc(=O)[nH]c21`, the EC50 was greater than 200 µM and the IC50 is greater than 200 µM. Consider `Cc1nn(-c2ccc(S(=O)(=O)[O-])cc2)c([O-])c1N=[N+](C)c1ccc(-c2ccc(N=Nc3ccc4c(S(=O)(=O)[O-])cc(S(=O)(=O)[O-])c(N)c4c3[O-])c([O-])c2)cc1[O-].[Cu+2].[Cu+2].[Na+]`, for which the EC50 worked out at 6.76 µM and the IC50 was 120 µM. For the compound `COC1=C(C)C(=O)C(=O)c2c(C)ccnc21`, the outcome was inactive. Take `Cn1c2c(c3ccccc31)CCN(CCCCN1CCN(c3ccccc3)CC1)C2=O`: the EC50 is greater than 30.9 µM and the IC50 was greater than 30.9 µM. Take `CN(C)CC/[N+]([O-])=C(/c1ccccc1)C12CC3CC(CC(C3)C1)C2`: the result was inactive. Turning to `O=C(Nc1cccc(Cl)c1)Nc1ccc[nH]c1=O`, the EC50 is greater than 490 µM and the IC50 stood at 25.1 µM. For the compound `N[C@H](C(=O)O)[C@@H](Cl)CC(=O)O`, the result was inactive. In the case of `CCOC1OC(CO)C(O)CC1n1ccc(=O)[nH]c1=O` (configuration not stated), the EC50 was greater than 200 µM and the IC50 was 97.7 µM. For `CCOC(=O)N1C2C=C(C)C(C3C(C)C(=O)N31)N(C(=O)c1ccccc1)O2` (configuration not stated), in that order: greater than 355 µM and greater than 355 µM. Consider `Cn1c(=O)c2c(nc(NCC[N+](C)(C)C)n2C)n(C)c1=O`, for which the outcome was inactive. As to `Cc1ccc(/C=C/C(=O)c2sc(-c3nc(C)c(C(=O)/C=C/c4ccc(C)cc4)s3)nc2C)cc1`, the EC50 is greater than 38.9 µM and the half-inhibitory concentration (IC50) is greater than 38.9 µM. Turning to `NC1CC(=O)c2c(Cl)sc(Cl)c21` (configuration not stated), the EC50 is greater than 200 µM and the 50% inhibitory concentration (IC50) was 3.47 µM. As for `COC(=O)C1=NN2c3ccccc3C(=O)OCCC2(C)C1` (configuration not stated), the EC50 was greater than 200 µM and the IC50 was greater than 200 µM.

`O=C1CCC(N2C(=O)C3CCCCC3C2=O)C(=O)N1` (configuration not stated): the EC50 is greater than 200 µM and the 50% inhibitory concentration (IC50) was greater than 200 µM. As to `CCOC(=O)/C(=C\c1cccc(Cl)c1)P(=O)(OCC)OCC`, the EC50 is greater than 380 µM and the IC50 was 81.3 µM. On the same counts, the results for `c1ccc2sc(SCN3CCN(CSc4nc5ccccc5s4)CC3)nc2c1` are greater than 1.62 µM and greater than 1.62 µM.

Turning to `CCCCN=C(NC#N)NCCCC`, the EC50 was greater than 457 µM and the half-maximal inhibitory concentration (IC50) is 224 µM. For `c1ccc2c(N3CC3)nncc2c1`, in that order: greater than 200 µM and greater than 200 µM. Regarding `Cn1c(=O)c2nc(-c3cccnc3)cnc2n(C)c1=O`, the EC50 was greater than 200 µM and the concentration for half-maximal inhibition (IC50) was greater than 200 µM.
